In general, IC50 refers to the concentration that gives 50% inhibition.

Entries after “also recorded” stand apart in the source; their conditions may differ. Where two headings read alike, the source gives them in different places.

The test system of series [1] is Namalwa cells. As to the kind of experiment: Sulphorhodamine B (SRB) assay, Namalwa. The format is cell-based, human. On the procedure:
(§1) Cells of the types described above were seeded in wells of a 96-well plate at a number optimised for each cell line.
(§2) A fixed concentration of AS1411 (either 1 μM or 2.5 μM) was added with varying concentrations of doxorubicin (ranging between 0.12 nM and 30667.0 nM) and cells were incubated for 6 days. A control was run with varying amounts of AS1411 without Doxorubicin. A second control series was run with the varying amounts of Doxorubicin but with no AS1411 present.
(§3) Cells were then washed, fixed to the 96-well plate with 16% TCA and exposed to the dye Sulphorhodamine B (SRB; available from Sigma-Aldrich, Dorset, UK; catalogue number S-1402). The optical density of the remaining cell mass after exposure to AS1411 was measured in a microplate spectrophotometer and IC50 determined.
(§4) The experiments were run in duplicate and the mean optical density calculated.
(§5) Combination index (CI) is determined using Calcusyn software (Biosoft, Cambridge UK) which employs the method of Chou, T.-C. and Talalay, P (See, Chou et al, Adv. Enz. Regul. 22: 27-55, 1984; and Chou, T.-C., Pharmacological Reviews 58:621-681, 2006.).
A general note: In SRB staining, fixed cells bind dye roughly in proportion to their protein.

Series [2] relates to MV411 cells. Briefly: Sulphorhodamine B (SRB) assay, MV411. The format is cell-based. The settings on record: MV411, 6 days. On the procedure:
as §1, §2, §3, §4, §5

The test system of series [3] is KG-1 cells. Briefly: Sulphorhodamine B (SRB) assay, KG-1. It counts as cell-based. The settings on record: KG-1, 6 days. As to the method:
as §1, §2, §3, §4, §5

Series [4] concerns K562 cells. Briefly: Sulphorhodamine B (SRB) assay, K562. It counts as cell-based. The settings on record: K562, 6 days. As to the method: as §1, §2, §3, §4, §5
Series [5] has as its system Daudi cells. As to the kind of experiment: Sulphorhodamine B (SRB) assay, Daudi. The format is cell-based, human. As to the method:
as §1, §2, §3, §4, §5

The test system of series [6] is Raji cells. Briefly: Sulphorhodamine B (SRB) assay, Raji. It counts as cell-based, human. As to the method: as §1, §2, §3, §4, §5
Series [7] has as its system HL-60 cells. Briefly: Sulphorhodamine B (SRB) assay, HL-60. It counts as cell-based. The conditions noted are these: HL-60, 6 days. As to the method:
as §1, §2, §3, §4, §5

Series [8] deals with Jurkat cells. As to the kind of experiment: Sulphorhodamine B (SRB) assay, Jurkat. The format is cell-based. The settings on record: 6 days. As to the method:
as §1, §2, §3, §4, §5

For series [9], the system named is MV4-11 (AML) cells. As to the kind of experiment: SRB assay, paediatric cancer cell line MV4-11. It counts as cell-based. The settings on record: MV4-11, acute myelogenous leukaemia (AML); 6-day SRB; average of at least two experiments. As to the method:
(§6) Cells were typically seeded in wells of a 96-well plate as follows for each cell line:
(§7) AS1411 (G rich oligonucleotide of sequence ID No. 1) was added at a concentration selected from 0, 0.1, 1, 5 or 20 µM and cells were incubated for 6 days
(§8) Cells were then washed, fixed to the 96-well plate and exposed to the dye Sulphorhodamine B (SRB; available from Sigma-Aldrich, Dorset, UK; catalogue number S-1402. The optical density of the remaining cell mass after exposure to AS1411 was measured in a microplate spectrophotometer and IC50 determined. For the time course experiments, AS1411 was washed off cells at the stated time-point, and then fresh medium applied to the cells which were left to grow for the full 6 days of the assay.
as §4

The subject of series [10] is SUP-B15 (ALL) cells. Briefly: SRB assay, paediatric cancer cell line SUP-B15. It counts as cell-based. The conditions noted are these: SUP-B15, acute lymphoblastic leukaemia (ALL); 6-day SRB; average of at least two experiments. As to the method: as §6, §7, §8, §4
For series [11], the system named is R-1059-D (osteosarcoma). Briefly: SRB assay, paediatric cancer cell line R-1059-D. It counts as cell-based. The conditions noted are these: 6-day SRB, average of at least two experiments. On the procedure: as §6, §7, §8, §4
Series [12] relates to A204 (rhabdomyosarcoma). As to the kind of experiment: SRB assay, paediatric cancer cell line A204. The conditions noted are these: 6-day SRB, average of at least two experiments. It counts as cell-based. As to the method:
as §6, §7, §8, §4

Series [13] relates to SK-N-AS (neuroblastoma). Briefly: SRB assay, paediatric cancer cell line SK-N-AS. The format is cell-based. The settings on record: 6-day SRB, average of at least two experiments. As to the method: as §6, §7, §8, §4
Series [14] deals with Bax protein. As to the kind of experiment: Western blot analysis, Bax. It counts as cell-based. The conditions noted are these: cells incubated with AS1411 for 4 days; whole cell lysate; both cell lines; normalised to β-actin. On the procedure:
(§9) Cells were incubated with AS1411 for 4 days, after which cell lysates were analysed by non-reducing SDS-PAGE analysis using 4-12% NuPAGE Bis-Tris Gels (Invitrogen).
(§10) 10 μg of total protein (whole cell lysate) was loaded per well as assessed by the Lowry assay (Lowry reagent available from Sigma-Aldrich, catalogue number L3540) and detected using ECL Advance western blotting kit (GE Healthcare).
(§11) Anti-nucleolin and bax antibodies were obtained from Santa Cruz and the β-actin antibody from QED.
In general terms: In western blotting, separated proteins are transferred to a membrane and probed.

Series [15] concerns nucleolin. As to the kind of experiment: Western blot analysis, nucleolin. The format is cell-based. The settings on record: cells incubated with AS1411 for 4 days; whole cell lysate. As to the method:
as §9, §10, §11

[16] abbreviates: Homo sapiens, 144 h, IC50 as doxorubicin concentration, alone or with fixed AS1411.
The mark [17] stands for this setting: Homo sapiens, 144 h, 6 days, SRB, IC50 as doxorubicin concentration, alone or with fixed AS1411, read-out: Mean IC50.
Setting [18] is: Homo sapiens, doxorubicin alone, read-out: Doxorubicin IC50, Alone.
Where [19] appears, read: Homo sapiens, in combination with 2.5 μM AS1411, read-out: Doxorubicin IC50, In combination with 2.5 μM AS1411.
[20] abbreviates: doxorubicin IC50 alone vs in combination with 2.5 μM AS1411.
Setting [21] is: 6 days, SRB, AS1411 without doxorubicin, read-out: Mean IC50.

For the molecule `COc1cccc2c1C(=O)c1c(O)c3c(c(O)c1C2=O)C[C@@](O)(C(=O)CO)C[C@@H]3O[C@@H]1CC(N)[C@@H](O)C(C)O1` (stereo partly drawn) [Doxorubicin, (8S,10S)-10-(4-amino-5-hydroxy-6-methyl-tetrahydro-2H-pyran-2-yloxy)-6,8,11-trihydroxy-8-(2-hydroxyacetyl)-1-methoxy-7,8,9,10-tetrahydrotetracene-5,12-dione], the IC50 in series [1] (Homo sapiens, 144 h, Namalwa, 6 days, SRB, IC50 as doxorubicin concentration, alone or with fixed AS1411, read-out: Mean IC50) came to 69.7 nM; in [1] (Homo sapiens, NAMALWA, doxorubicin alone, read-out: Doxorubicin IC50, Alone) it was 69.7 nM; in series [1] (Homo sapiens, NAMALWA, in combination with 2.5 μM AS1411, read-out: Doxorubicin IC50, In combination with 2.5 μM AS1411) it was 17.2 nM; in series [2] (Homo sapiens, MV4-11, 144 h, IC50 as doxorubicin concentration, alone or with fixed AS1411), 75.9 nM; in series [3] (setting [16]), 4860 nM; in series [4] (setting [16]), 1260 nM. Further, the IC50 in [5] (setting [17]) turned out to be 220 nM; in series [5] (setting [18]), 220 nM; in [5] (setting [19]), 57.2 nM; in series [6] (setting [17]), 746 nM; in series [6] (setting [18]), 746 nM; in [6] (setting [19]) it was 327 nM. The IC50 in series [7] (setting [16]) was found to be 639 nM; in [8] (Homo sapiens, 144 h, n=1, IC50 as doxorubicin concentration, alone or with fixed AS1411) it was 426 nM. The “Fold increase in potency” value in [1] (NAMALWA, doxorubicin IC50 alone vs in combination with 2.5 μM AS1411) was found to be 4.1 fold; in series [5] (setting [20]), 3.8 fold; in series [6] (setting [20]), 2.3 fold.
In the case of “AS1411: G-rich oligonucleotide, SEQ ID No: 1, 5′-GGTGGTGGTGGTTGTGGTGGTGGTGG-3′”, the IC50 in [1] (Namalwa, 6 days, SRB, AS1411 without doxorubicin, read-out: Mean IC50) was 3200 nM; in series [2] (AS1411 without doxorubicin), 2360 nM; in series [3] (AS1411 without doxorubicin), 2320 nM; in series [4] (AS1411 without doxorubicin), 7030 nM; in series [5] (setting [21]) it was 9350 nM; in series [6] (setting [21]) it was 4940 nM. For the same molecule, the IC50 in series [7] (AS1411 without doxorubicin) was determined as 2620 nM; in [8] (n=1, AS1411 without doxorubicin) it was 1130 nM; in series [9], 2.1 nM; in [10], 2.3 nM; in [11], 4.7 nM; in series [12], 2.6 nM. It took 3.2 nM to reach half-maximal inhibition in series [13] (IC50). The “Bax protein level (Western blot)” value in series [14] was “increased levels; also recorded: Up-regulation”. Besides, in [15], the “total cell lysate nucleolin levels (Western blot)” value is given as “no effect”.

The values are drawn from US20110105422A1, “USE OF G-RICH OLIGONUCLEOTIDES FOR TREATING NEOPLASTIC DISEASES” (priority 2008, published 2011).
